Laboratory results from BindingDB's records for doi:10.1021/jm900036m (The University of Newcastle, 2009).

Test: Inhibition of dynamin 1-mediated endocytosis internalization of Tf-A594 in human U2OS cells pretreated for 30 mins

Row | Structure (SMILES) | IC50 [µM]
1 | CCCCCCCCNC(=O)/C(C#N)=C/c1cn(CCCN(C)C)c2ccccc12 [2-Cyano-N-octyl-3-(1-(3-dimethylaminopropyl)-1H-indol-3-yl)-acrylamide] | 5
2 | CCCCCCCCCCNC(=O)/C(C#N)=C/c1c(C)n(CCN(C)C)c2ccccc12 [2-Cyano-N-decyl-3-[1-(2-dimethylaminoethyl)-2-methyl-1Hindol-3-yl]-acrylamide] | 58.2
3 | CCCCCCCCNC(=O)/C(C#N)=C/c1c(C)n(CCCN(C)C)c2ccccc12 [2-Cyano-N-octyl-3-[1-(3-dimethylaminopropyl)-2-methyl-1Hindol-3-yl]-acrylamide] | 10.8
4 | CCCCCCNC(=O)/C(C#N)=C/c1c(C)n(CCCN(C)C)c2ccccc12 [2-Cyano-N-hexyl-3-[1-(3-dimethylaminopropyl)-2-methyl-1Hindol-3-yl]-acrylamide] | 14.3
5 | CCCCCCCCNC(=O)/C(C#N)=C/c1c(C)n(CCN(C)C)c2ccccc12 [2-Cyano-N-octyl-3-[1-(2-dimethylaminoethyl)-2-methyl-1Hindol-3-yl]-acyrlamide] | 13.2
